According to PubChem BioAssay AID248 (DTP/NCI, 2004):
Where “and” joins values, the source holds several entries; their conditions need not be identical. Equal values may be shown once. Inconclusive results and toxic doses are left out. Cut-off read from the data, not from the text of the source: active = T/C of 150% or more; inactive = T/C below 125%.

Test system: L1210 leukemia ip in BDF1 mice, survival T/C
Assay: NCI In Vivo Anticancer Drug Screen. Data for tumor model L1210 Leukemia (intraperitoneal) in B6D2F1 (BDF1) mice
Conditions: endpoint: mean survival time, higher = longer survival
Outline: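 Tumor was transplanted into mice, which were then dosed with test compound or vehicle alone. Survival was recorded for each group, and the treated figure was expressed relative to the control figure.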

[1] = dose: 100.0 mg/kg/injection, schedule: Q01DX001 (ip), vehicle: saline with Tween-80
[2] = dose: 100.0 mg/kg/injection, schedule: Q01DX001 (ip), vehicle: saline
[3] = dose: 200.0 mg/kg/injection, schedule: Q01DX001 (ip), vehicle: saline
[4] = dose: 400.0 mg/kg/injection, schedule: Q01DX001 (ip), vehicle: saline
[5] = dose: 100.0 mg/kg/injection, schedule: Q01DX001 (ip), vehicle: carboxymethylcellulose (CMC)
[6] = dose: 200.0 mg/kg/injection, schedule: Q01DX001 (ip), vehicle: carboxymethylcellulose (CMC)
[7] = dose: 400.0 mg/kg/injection, schedule: Q01DX001 (ip), vehicle: carboxymethylcellulose (CMC)
[8] = dose: 100.0 mg/kg/injection, schedule: Q04DX003 (ip), vehicle: saline with Tween-80

Measured: T/C

NC(Cc1nn[nH]n1)C(=O)O (centres undefined)
inactive: dose: 100.0 mg/kg/injection, schedule: Q01DX009 (ip), vehicle: water 102 % of control | dose: 100.0 mg/kg/injection, schedule: Q04DX003 (ip), vehicle: water 96 % of control | dose: 200.0 mg/kg/injection, schedule: Q01DX009 (ip), vehicle: water 102 % of control | dose: 200.0 mg/kg/injection, schedule: Q04DX003 (ip), vehicle: water 94 % of control | dose: 400.0 mg/kg/injection, schedule: Q01DX009 (ip), vehicle: water 98 % of control | dose: 400.0 mg/kg/injection, schedule: Q04DX003 (ip), vehicle: water 88 % of control

Cc1[nH]c(=O)[nH]c(=O)c1N=Nc1ccccc1
inactive: dose: 25.0 mg/kg/injection, schedule: Q01DX001 (ip), vehicle: saline with Tween-80 95 % of control | dose: 50.0 mg/kg/injection, schedule: Q01DX001 (ip), vehicle: saline with Tween-80 98 % of control | [1] 95 % of control

NC(N)=N/N=C(/c1ccccc1)c1ccccc1N
inactive: dose: 15.0 mg/kg/injection, schedule: Q01DX Z (ip), vehicle: methylcellulose (MC) 105 % of control | dose: 30.0 mg/kg/injection, schedule: Q01DX Z (ip), vehicle: methylcellulose (MC) 102 % of control | dose: 60.0 mg/kg/injection, schedule: Q01DX Z (ip), vehicle: methylcellulose (MC) 105 % of control | dose: 120.0 mg/kg/injection, schedule: Q01DX Z (ip), vehicle: methylcellulose (MC) 97 % of control | dose: 120.0 mg/kg/injection, schedule: Q01DX Z (oral), vehicle: methylcellulose (MC) 88 % of control | dose: 240.0 mg/kg/injection, schedule: Q01DX Z (ip), vehicle: methylcellulose (MC) 88 % of control | dose: 240.0 mg/kg/injection, schedule: Q01DX Z (oral), vehicle: methylcellulose (MC) 98 % of control | dose: 480.0 mg/kg/injection, schedule: Q01DX Z (oral), vehicle: methylcellulose (MC) 101 % of control

NC(=O)C1C(=O)OC2CCCCC21 (centres undefined)
inactive: [2] 92 % of control | [3] 87 % of control | [4] 97 % of control

Clc1cccc(/C=N/Nc2nnc(N/N=C/c3cccc(Cl)c3)c3ccccc23)c1
inactive: dose: 50.0 mg/kg/injection, schedule: Q01DX001 (ip), vehicle: saline 100 % of control | [2] 103 % of control | [3] 100 % of control | [4] 100 % of control

Oc1cccc2ccc(N/N=C/c3ccnc4c(O)cccc34)nc12
inactive: [5] 93 % of control | [6] 96 % of control | [7] 91 % of control

O=c1[nH][nH]c(=O)c2ccccc12
inactive: dose: 50.0 mg/kg/injection, schedule: Q01DX001 (ip), vehicle: other 103 % of control | dose: 100.0 mg/kg/injection, schedule: Q01DX001 (ip), vehicle: other 103 % of control | dose: 100.0 mg/kg/injection, schedule: Q01DX009 (ip), vehicle: Klucel (hydroxypropylcellulose) (HPC) 111 % of control and 116 % of control | dose: 100.0 mg/kg/injection, schedule: Q04DX003 (ip), vehicle: Klucel (hydroxypropylcellulose) (HPC) 108 % of control | dose: 200.0 mg/kg/injection, schedule: Q01DX001 (ip), vehicle: other 100 % of control | dose: 200.0 mg/kg/injection, schedule: Q01DX009 (ip), vehicle: Klucel (hydroxypropylcellulose) (HPC) 106 % of control and 105 % of control | dose: 200.0 mg/kg/injection, schedule: Q04DX003 (ip), vehicle: Klucel (hydroxypropylcellulose) (HPC) 110 % of control | dose: 400.0 mg/kg/injection, schedule: Q01DX001 (ip), vehicle: other 103 % of control | dose: 400.0 mg/kg/injection, schedule: Q01DX009 (ip), vehicle: Klucel (hydroxypropylcellulose) (HPC) 100 % of control | dose: 400.0 mg/kg/injection, schedule: Q04DX003 (ip), vehicle: Klucel (hydroxypropylcellulose) (HPC) 104 % of control

CCNCc1ccc(OC)cc1
inactive: dose: 25.0 mg/kg/injection, schedule: Q01DX009 (ip), vehicle: saline 101 % of control | dose: 50.0 mg/kg/injection, schedule: Q01DX009 (ip), vehicle: saline 93 % of control | dose: 100.0 mg/kg/injection, schedule: Q01DX009 (ip), vehicle: saline 100 % of control | [8] 120 % of control

CN(C)/N=C\c1ccccc1Cl
inactive: dose: 12.5 mg/kg/injection, schedule: Q01DX009 (ip), vehicle: saline with Tween-80 91 % of control | dose: 25.0 mg/kg/injection, schedule: Q01DX009 (ip), vehicle: saline with Tween-80 102 % of control | dose: 50.0 mg/kg/injection, schedule: Q01DX009 (ip), vehicle: saline with Tween-80 100 % of control and 101 % of control | [1] 100 % of control | [8] 101 % of control | dose: 200.0 mg/kg/injection, schedule: Q01DX001 (ip), vehicle: saline with Tween-80 96 % of control | dose: 200.0 mg/kg/injection, schedule: Q04DX003 (ip), vehicle: saline with Tween-80 98 % of control | dose: 400.0 mg/kg/injection, schedule: Q01DX001 (ip), vehicle: saline with Tween-80 117 % of control

COc1cc(CCCc2cccc(O)c(=O)c2)cc(OC)c1OC
inactive: dose: 100.0 mg/kg/injection, schedule: Q04DX002 (ip), vehicle: saline with Tween-80 91 % of control and 103 % of control | dose: 200.0 mg/kg/injection, schedule: Q04DX002 (ip), vehicle: saline with Tween-80 105 % of control and 89 % of control | dose: 400.0 mg/kg/injection, schedule: Q04DX002 (ip), vehicle: saline with Tween-80 108 % of control and 116 % of control

C/C(=N\NC(N)=S)C(C)(C)O
inactive: [5] 110 % of control | [6] 108 % of control | [7] 104 % of control

O=C(Nc1cc([N+](=O)[O-])ccc1Cl)c1ccc(F)cc1
inactive: dose: 100.0 mg/kg/injection, schedule: Q04DX002 (ip), vehicle: Klucel (hydroxypropylcellulose) (HPC) 102 % of control | dose: 200.0 mg/kg/injection, schedule: Q04DX002 (ip), vehicle: Klucel (hydroxypropylcellulose) (HPC) 98 % of control | dose: 400.0 mg/kg/injection, schedule: Q04DX002 (ip), vehicle: Klucel (hydroxypropylcellulose) (HPC) 102 % of control

Cc1nc2ccccc2cc1C#N
inactive: [5] 118 % of control | [6] 118 % of control | [7] 108 % of control

Oc1ccc(/C=N/N2CCN(/N=C/c3ccc(O)cc3O)CC2)c(O)c1
inactive: [2] 97 % of control | [3] 94 % of control | [4] 100 % of control

CC1(C)CC(=O)C=C(OS(=O)(=O)C(F)(F)F)C1
inactive: dose: 12.5 mg/kg/injection, schedule: Q01DX009 (ip), vehicle: DMSO 110 % of control | dose: 25.0 mg/kg/injection, schedule: Q01DX009 (ip), vehicle: DMSO 101 % of control | dose: 50.0 mg/kg/injection, schedule: Q01DX009 (ip), vehicle: DMSO 103 % of control | dose: 100.0 mg/kg/injection, schedule: Q01DX009 (ip), vehicle: DMSO 94 % of control

O=C(COc1ccc(Cl)c(Cl)c1)NCc1ccc[n+](Cc2cccc(Cl)c2S(=O)(=O)F)c1
inactive: dose: 25.0 mg/kg/injection, schedule: Q04DX003 (ip), vehicle: saline 103 % of control | dose: 50.0 mg/kg/injection, schedule: Q04DX003 (ip), vehicle: saline 101 % of control | dose: 100.0 mg/kg/injection, schedule: Q04DX003 (ip), vehicle: saline 93 % of control and 100 % of control

COCCOC(=O)Cc1cccc2ccccc12
inactive: dose: 222.0 mg/kg/injection, schedule: Q01DX Z (ip), vehicle: saline 90 % of control | dose: 333.0 mg/kg/injection, schedule: Q01DX Z (ip), vehicle: saline 100 % of control | dose: 500.0 mg/kg/injection, schedule: Q01DX Z (ip), vehicle: saline 110 % of control
